Results reported in ChEMBL document CHEMBL3885861, “Open TG-GATES”.

Species: Rattus norvegicus
Assay: Open TG-GATES - Regimen: Single
Assay type: toxicity, organism-based, Sprague-Dawley
Parameters: regimen Single, gender Male, age 6 weeks
Settings: in vivo, po, 300 mg/kg, route gavage, dose level High; for APTT / Bas / Eos / Fbg / Hb / Ht / Lym / MCH / MCHC / MCV / Mono / Neu / PT / Plat / RBC / Ret / WBC: tissue Blood; for KIDNEY_L / KIDNEY_R / KIDNEY_TOTAL: tissue Kidney; for LIVER: tissue Liver; for A/G / ALP / ALT / AST / BUN / CRE / Ca / Cl / DBIL / GLC / IP / K / LDH / Na / PL / RALB / TBIL / TC / TG / TP / gamma-GTP: tissue Plasma

For NC(=O)N/N=C/c1ccc([N+](=O)[O-])o1 [NITROFURAZONE], the TERMINAL_BW (3 h) was 181.2 g, the APTT (3 h) was 16.7 s and the Bas (3 h) was 0%. For the same compound, the Eos (3 h) was 0.6%, the Fbg (3 h) was 230.6 mg/dL and the Hb (3 h) was 12.3 g/dL. For the same compound, the Ht (3 h) was 38.2%, the Lym (3 h) was 70.4% and the MCH (3 h) was 21.7 pg. For the same compound, the MCHC (3 h) was 32.3%, the MCV (3 h) was 67 fL and the Mono (3 h) was 4.6%. The Neu (3 h) was 23.6%, the PT (3 h) was 14.9 s and the Plat (3 h) was 114.6 x10_4/uL. The RBC (3 h) was 569.8 x10_4/ul, the Ret (3 h) was 10.8% and the WBC (3 h) was 73.1 x10_2/uL. It also gave a KIDNEY_L (3 h) of 0.8 g, a KIDNEY_R (3 h) of 0.8 g and a KIDNEY_TOTAL (3 h) of 1.6 g. For the same compound, the LIVER (3 h) was 7.5 g, the A/G (3 h) was 0.9 and the ALP (3 h) was 1634 IU/L. The ALT (3 h) was 47 IU/L, the AST (3 h) was 81.6 IU/L and the BUN (3 h) was 11.8 mg/dL. The CRE (3 h) was 0.2 mg/dL, the Ca (3 h) was 11.1 mg/dL and the Cl (3 h) was 105.2 meq/L. For the same compound, the DBIL (3 h) was 0.002 mg/dL, the GLC (3 h) was 181.6 mg/dL and the IP (3 h) was 8.9 mg/dL. The K (3 h) was 3.9 meq/L, the LDH (3 h) was 47.8 IU/L and the Na (3 h) was 142 meq/L. The PL (3 h) was 135.8 mg/dL, the RALB (3 h) was 2.4 g/dL and the TBIL (3 h) was 0.056 mg/dL. It also gave a TC (3 h) of 78 mg/dL, a TG (3 h) of 29.4 mg/dL and a TP (3 h) of 5.2 g/dL. It also gave a gamma-GTP (3 h) of 1.6 IU/L, a TERMINAL_BW (6 h) of 181.5 g and an APTT (6 h) of 15.7 s. The Bas (6 h) was 0%, the Eos (6 h) was 1% and the Fbg (6 h) was 265 mg/dL. It also gave a Hb (6 h) of 12.7 g/dL, a Ht (6 h) of 39.5% and a Lym (6 h) of 71.2%. It also gave an MCH (6 h) of 21.5 pg, an MCHC (6 h) of 32.1% and an MCV (6 h) of 67 fL. It also gave a Mono (6 h) of 4%, a Neu (6 h) of 23.4% and a PT (6 h) of 14.6 s. For the same compound, the Plat (6 h) was 115.7 x10_4/uL, the RBC (6 h) was 589.4 x10_4/ul and the Ret (6 h) was 10.7%. It also gave a WBC (6 h) of 70.2 x10_2/uL, a KIDNEY_L (6 h) of 0.8 g and a KIDNEY_R (6 h) of 0.8 g. For the same compound, the KIDNEY_TOTAL (6 h) was 1.6 g, the LIVER (6 h) was 7.6 g and the A/G (6 h) was 0.9. The ALP (6 h) was 1281.4 IU/L, the ALT (6 h) was 44 IU/L and the AST (6 h) was 77 IU/L. It also gave a BUN (6 h) of 9.2 mg/dL, a CRE (6 h) of 0.2 mg/dL and a Ca (6 h) of 11 mg/dL. The Cl (6 h) was 105.4 meq/L, the DBIL (6 h) was 0.006 mg/dL and the GLC (6 h) was 171 mg/dL. For the same compound, the IP (6 h) was 9 mg/dL, the K (6 h) was 3.7 meq/L and the LDH (6 h) was 47.6 IU/L. The Na (6 h) was 142.2 meq/L, the PL (6 h) was 149 mg/dL and the RALB (6 h) was 2.5 g/dL. It also gave a TBIL (6 h) of 0.066 mg/dL, a TC (6 h) of 84.4 mg/dL and a TG (6 h) of 24.4 mg/dL. For the same compound, the TP (6 h) was 5.4 g/dL, the gamma-GTP (6 h) was 1.4 IU/L and the TERMINAL_BW (9 h) was 181 g. For the same compound, the APTT (9 h) was 15.4 s, the Bas (9 h) was 0% and the Eos (9 h) was 1%. It also gave a Fbg (9 h) of 282.4 mg/dL, a Hb (9 h) of 12.4 g/dL and a Ht (9 h) of 38.2%. The Lym (9 h) was 64.4%, the MCH (9 h) was 21.8 pg and the MCHC (9 h) was 32.3%. It also gave an MCV (9 h) of 67.4 fL, a Mono (9 h) of 3% and a Neu (9 h) of 30.4%. It also gave a PT (9 h) of 14.5 s, a Plat (9 h) of 120.7 x10_4/uL and an RBC (9 h) of 567.2 x10_4/ul. For the same compound, the Ret (9 h) was 10.7%, the WBC (9 h) was 63.1 x10_2/uL and the KIDNEY_L (9 h) was 0.8 g. The KIDNEY_R (9 h) was 0.8 g, the KIDNEY_TOTAL (9 h) was 1.7 g and the LIVER (9 h) was 7.5 g. The A/G (9 h) was 0.9, the ALP (9 h) was 1242 IU/L and the ALT (9 h) was 39.2 IU/L. It also gave an AST (9 h) of 79 IU/L, a BUN (9 h) of 10.4 mg/dL and a CRE (9 h) of 0.1 mg/dL. It also gave a Ca (9 h) of 10.8 mg/dL, a Cl (9 h) of 103.8 meq/L and a DBIL (9 h) of 0.006 mg/dL. The GLC (9 h) was 196 mg/dL, the IP (9 h) was 10.6 mg/dL and the K (9 h) was 3.6 meq/L. For the same compound, the LDH (9 h) was 69 IU/L, the Na (9 h) was 141 meq/L and the PL (9 h) was 135.2 mg/dL. It also gave an RALB (9 h) of 2.4 g/dL, a TBIL (9 h) of 0.062 mg/dL and a TC (9 h) of 78.8 mg/dL. It also gave a TG (9 h) of 23.2 mg/dL, a TP (9 h) of 5.2 g/dL and a gamma-GTP (9 h) of 1.4 IU/L. It also gave a TERMINAL_BW (24 h) of 167.8 g, an APTT (24 h) of 16.1 s and a Bas (24 h) of 0%. It also gave an Eos (24 h) of 0.5%, a Fbg (24 h) of 368.8 mg/dL and a Hb (24 h) of 14.1 g/dL. The Ht (24 h) was 42.9%, the Lym (24 h) was 69% and the MCH (24 h) was 21.6 pg. It also gave an MCHC (24 h) of 32.6%, an MCV (24 h) of 66 fL and a Mono (24 h) of 3.2%. The Neu (24 h) was 26.5%, the PT (24 h) was 15.8 s and the Plat (24 h) was 112.2 x10_4/uL. It also gave an RBC (24 h) of 651.8 x10_4/ul, a Ret (24 h) of 8.6% and a WBC (24 h) of 68.9 x10_2/uL. The KIDNEY_L (24 h) was 0.8 g, the KIDNEY_R (24 h) was 0.8 g and the KIDNEY_TOTAL (24 h) was 1.6 g. For the same compound, the LIVER (24 h) was 7 g, the A/G (24 h) was 0.9 and the ALP (24 h) was 1162.2 IU/L. For the same compound, the ALT (24 h) was 186 IU/L, the AST (24 h) was 88 IU/L and the BUN (24 h) was 15 mg/dL. For the same compound, the CRE (24 h) was 0.2 mg/dL, the Ca (24 h) was 10.6 mg/dL and the Cl (24 h) was 105.8 meq/L. For the same compound, the DBIL (24 h) was 0.0125 mg/dL, the GLC (24 h) was 174.8 mg/dL and the IP (24 h) was 9.7 mg/dL. The K (24 h) was 3.4 meq/L, the LDH (24 h) was 78.8 IU/L and the Na (24 h) was 142.8 meq/L. The PL (24 h) was 131.2 mg/dL, the RALB (24 h) was 2.4 g/dL and the TBIL (24 h) was 0.0825 mg/dL. It also gave a TC (24 h) of 83.8 mg/dL, a TG (24 h) of 39.8 mg/dL and a TP (24 h) of 5.3 g/dL. For the same compound, the gamma-GTP (24 h) was 0.8 IU/L.
